# Tests used:
# YAP/TAZ = test: Screening: YAP/TAZ activity reporter (8xGTIIC plasmid) assay in NUGC3 cells (luminescence % of DMSO); format: cell-based, human; settings: NUGC3 cells, luminescence relative to DMSO
# [1] = test system: triple-negative breast cancer cell line MDA-MB-231; test: Anti-tumor effect evaluation test in MDA-MB-231 tumor model mice; format: in vivo, immunodeficient mice (BALB/c-nu/nu); settings: 20 mg/kg intraperitoneally every other day in corn oil; FIG. 1 and 2
# Experimental: A cell suspension (1×10^6 cells/100 μL), in which triple-negative breast cancer cell line MDA-MB-231 was suspended in phosphate buffer (PBS, produced by FUJIFILM Wako Pure Chemical Corporation), was inoculated subcutaneously in the dorsal lumbar region of immunodeficient mice (BALB/c-nu/nu, female, 6 weeks old, purchased from Shimizu Laboratory Supplies Co., Ltd.) using a syringe with a 23 G injection needle (Terumo Corporation). After confirming that the cancer cells engrafted under the skin of the mice to form tumor tissues, and that the tumor volume reached 100 mm^3, the obtained tumor model mice were used for the following evaluation test. First, each compound for evaluation was dissolved in corn oil (produced by Sigma-Aldrich Co., LLC) and administered intraperitoneally. PVZF0024 was administered at 100 mg/kg and PVZF2001 was administered at 20 mg/kg to the tumor model mice every other day. At each administration, the tumor diameter was measured with a caliper. The tumor volume was calculated according to the following formula: V=(3.14×D×d^2)/6 (wherein V is the tumor volume, D is the tumor major axis, and d is the tumor minor axis) (Wu. et al., Clin. Cancer Res., 2013 Oct. 15; 19(20): 5699-5710).
structure (smiles),measurement,setting,value
CC(C)c1cc(C(C)C)c(S(=O)(=O)CC2CC(C)(C)CC(C)(C)C2)c(C(C)C)c1 [PVZF2001],8×GTIIC,YAP/TAZ; 5 μM,40.38%
same,8×GTIIC,YAP/TAZ; 10 μM,20.02%
same,"antitumor effect (tumor growth, tumor volume)",[1],significantly inhibit tumor growth
